{"source": "patent US20040219098A1", "about": "“Methods for the treatment of tumors” (priority 2003, published 2004)", "key": {"JJ5 Breast Cancer cells [1]": {"system": "JJ5 Breast Cancer cells", "experiment": "Growth inhibition assay against JJ5 breast cancer cells", "format": "cell-based, human", "settings": "cultured 4 days", "method": "JJ5 breast cancer cells (prepared from BCBM JJ5) expressing approximately 10^6 epidermal growth factor receptors/cell were incubated with EGF-^111In-labeled transferrin composition, unlabeled hEGF or ^111In-oxine, centrifuged to remove free ligand, then assayed and seeded (10^6 cells/dish) into 35 mm culture dishes. Growth medium was added and the cells were cultured at 37° C./5% CO^2 for 4 days. The cells were then recovered by trypsinization and counted in a hemocytometer. Control dishes contained cells cultured in growth medium containing ^111In-DTPA or growth medium alone."}, "JJ5 Breast Cancer cells [2]": {"system": "JJ5 Breast Cancer cells", "experiment": "Cytotoxicity (colony-forming) assay against JJ5 breast cancer cells", "format": "cell-based, human", "settings": "14 days", "method": "JJ5 breast cancer cells were incubated with increasing amounts EGF-^111In-labeled transferrin composition or ^111In-oxine, centrifuged to remove free ligand, assayed and then seeded into 50 mm culture dishes. The number of cells seeded was varied from 3×10^4 to 3×10^6 cells to obtain approximately 400 viable colonies/dish taking into account the plating efficiency and the expected level of cytotoxicity. Control dishes contained JJ5 breast cancer cells which were incubated with normal saline. Growth medium was added and the cells were cultured at 37° C./5% CO^2 for 14 days. The growth medium was removed and the colonies were stained with methylene blue (1% in a 1:1 mixture of ethanol and water) then washed twice. The number of colonies per dish was counted using a manual colony counter (Manostat Corp). The plating efficiency was calculated by dividing the number of colonies observed by the number of cells seeded in each dish. The surviving fraction at increasing amounts of EGF-^111In-labeled transferrin composition or ^111In-oxine was calculated by dividing the plating efficiency for dishes containing treated cells with that observed for control dishes with normal saline.\nUsing a colony-forming assay, the radiotoxicity of internalization for JJ5 breast cancer cells was evaluated."}, "JJ5 Breast Cancer cells [3]": {"system": "JJ5 Breast Cancer cells", "experiment": "Binding of EGF-111In-labeled transferrin composition to breast cancer cells (radioligand binding, kinetics, retention, internalization)", "set-up": "species or system human", "settings": "for binding / internalization by cancer cells (in words): JJ5 breast cancer cells", "excerpt": "Breast cancer cells express up to 100-fold higher levels of EGFR than do normal epithelial tissues. EGFR expression in breast cancer bone metastasis biopsies ranged from 1-1300 fmol/mg membrane protein (approximately 400-1,000,000 receptors/cell) and was associated with high relapse rates and poor long term survival. Normal epithelial cells express <10^4 receptors/cell. For the normal breast cell line HBL-100, 8000 EGFR/cell has been reported. The expression of EGFR in breast cancer cell lines has a reported range of 800 EGFR/cell for MCF-7 cells to 10^6 EGFR/cell for MDA-MB-468 cells. […] Utilizing the Auger electron emitter In was used in the initial experiments to illustrate the utility of the invention using EGF-^111In-labeled transferrin compositions. The EGF-^111In-labeled transferrin (0.25-80 ng) was incubated with 1.5×10^6 cells/dish JJ5 Breast Cancer (prepared from BCBM JJ5) cells in 1 mL of 0.1% human serum albumin in 35 mm multiwell culture dishes at 37° C. for 30 minutes. The cells were transferred to a centrifuge tube and centrifuged. The cell pellet was separated from the supernatant and counted in a g-scintillation counter to determine bound (B) and free (F) radioactivity. Non-specific binding was determined by conducting the assay in 100 nM hEGF. The kinetics of binding was determined by incubating 1 ng of EGF-^111In-labeled transferrin composition with 3×10^6 JJ5 Breast Cancer cells at 37° C. and determining the proportion of radioactivity bound to the cells at various times up to 24 hours. Internalized fraction was measured by determining the proportion of radioactivity which could not be displaced from the cell surface by 100 nM hEGF. Cell-associated binding (surface-binding and intracellular accumulation) was expressed as a percentage of medium radioactivity bound per mg of cell study protein.\nEGF-^111In-labeled transferrin composition was rapidly bound by the breast cancer cells and retained for at least 24 hours. Over a 24 hour period at 37° C., <8% was lost from the cells in vitro."}}, "data": [{"compound": "EGF-^111In-labeled transferrin composition: human epidermal growth factor (EGF) operatively linked via linker-biotin/streptavidin to 111In-radiolabeled human transferrin", "values": [{"measurement": "growth inhibition of the JJ5 cells compared to the medium control", "setting": "JJ5 Breast Cancer cells [1]; 3.4 pCi/cell", "result": 83, "unit": "%"}, {"measurement": "reduction in cell survival", "setting": "JJ5 Breast Cancer cells [2]; 8 pCi/cell", "result": 99, "unit": "%"}, {"measurement": "time retained by the breast cancer cells", "setting": "JJ5 Breast Cancer cells [3]; 37° C., in vitro", "result": "at least 24 hours"}, {"measurement": "binding / internalization by cancer cells (in words)", "setting": "JJ5 Breast Cancer cells [3]", "result": "rapidly bound"}, {"measurement": "binding / internalization by cancer cells (in words)", "setting": "JJ5 Breast Cancer cells [3]; listed as EGF-^111In-labeled transferrin compostions", "result": "rapidly internalized"}, {"measurement": "affinity constant for binding to JJ5 cells", "setting": "JJ5 Breast Cancer cells [3]; association (affinity) constant, 37° C., 30 minutes, non-specific binding in 100 nM hEGF", "result": "8e+08", "unit": "L/mol"}, {"measurement": "111In radioactivity lost from the cells", "setting": "JJ5 Breast Cancer cells [3]; over a 24 hour period at 37° C., in vitro", "result": "< 8", "unit": "%"}]}, {"compound": "[In+3].[O-]c1cccc2cccnc12.[O-]c1cccc2cccnc12.[O-]c1cccc2cccnc12", "note": "[^111In oxine, reference compound]", "values": [{"measurement": "growth inhibition of the JJ5 cells compared to the medium control", "setting": "JJ5 Breast Cancer cells [1]; 3.5 pCi/cell", "result": 91, "unit": "%"}, {"measurement": "cell killing", "setting": "JJ5 Breast Cancer cells [2]; <6 pCi/cell", "result": "greater than 99%"}]}]}
